{"source": "patent US20060039911A1", "about": "“Method for the treatment of gastroesophageal reflux disease” (Aphton Corporation, priority 1998, published 2006)", "key": {"[1]": {"system": "pH of the stomach contents", "assay": "pH of the stomach contents of treated pigs", "assay_type": "in vivo", "description": "FIG. 1 illustrates experimental data concerning the percentage of time that the gastric contents remain above pH 3 in different groups of pigs treated with ranitidine (4 animals), omeprazole (5 animals) and hG17(1-9) (4 animals), as compared to six (6) control animals.\nFIG. 2 illustrates the percentage of time that the gastric contents remain above pH 4 in a group of untreated (control) pigs […] and groups of pigs treated with human gastrin 17(1-9)Ser9-Diphtheria […] (4 animals), ranitidine (4 animals) and omeprazole (5 animals) as described in FIG. 1.\nFIG. 3 depicts the baseline median pH of the gastric contents of a group of six (6) untreated (control) pigs and groups of four (4) pigs treated with human G17(1-9)Ser9-Diphtheria Toxoid, […] pigs with ranitidine and five (5) pigs with omeprazole as described in FIG. 1.\nIn the following Examples, the anti G17 immunogenic composition, 150 mg ranitidine and 60 mg omeprazole were administered to pigs and the resulting changes in the pH of the stomach contents before and after treatment were measured. Specifically, following the stomach pH measurements of the untreated control state of each pig, the stomach pH of the same pigs was measured after the animals were treated with either ranitidine, or composition of human gastrin 17(1-9)-h(G 17)ser9-Diphtheria Toxoid (Gastrimmune), or omeprazole administered individually and at different times in each of four animals (pigs)."}, "[2]": {"target": "gastrin-17 (Homo sapiens, UniProt P01350)", "assay": "Serum anti-gastrin antibody response of Gastrimmune-immunized mice (ELISA)", "assay_type": "in vivo", "description": "Gastrin neutralization was achieved by using the immunological composition Gastrimmune which is composed of the amino terminal domain of gastrin-17 linked, via an amino acid or peptide spacer to diphtheria toxoid which acts as the immunogenic carrier.\nSerum antibody titers rose within 2 weeks of the initial immunization to levels with an antigen binding capacity of >10^−9M. The presence of anti-gastrin antibodies within the serum of Gastrimmune-immunized mice was confirmed by using an ELISA. As expected, no bound gastrin levels were detected in animals immunized with control immunogen."}, "[3]": {"system": "GERD patients", "settings": "cited from earlier work"}, "[4]": {"system": "parietal cell", "settings": "meal-induced gastric acid secretion; cited from earlier work"}, "[5]": {"settings": "400-800 mg cimetidine and 150-300 mg ranitidine twice daily"}}}
{"molecule": "human gastrin 17(1-9)-h(G 17)ser9-Diphtheria Toxoid [Gastrimmune]", "values": [{"measurement": "inhibition of acid output from the stomach", "setting": "[1]", "value": "inhibited stomach acid output at a level of effectiveness between ranitidine and omeprazole"}, {"measurement": "time that the gastric contents remain above pH 3", "setting": "[1]; FIG. 1, 150 mg ranitidine, 60 mg omeprazole", "value": "for a longer period of time than in the pigs treated with ranitidine"}, {"measurement": "time that the gastric contents remain above pH 4", "setting": "[1]; FIG. 2, 150 mg ranitidine, 60 mg omeprazole", "value": "for a longer period of time than in the pigs treated with ranitidine"}, {"measurement": "median pH of the stomach contents", "setting": "[1]; FIG. 3", "value": "higher than ranitidine treated pigs"}, {"measurement": "presence of anti-gastrin antibodies within the serum (ELISA)", "setting": "[2]; Gastrimmune-immunized mice", "value": "confirmed"}, {"measurement": "cross-reactivity of the antibodies raised", "setting": "[2]; mouse, in vivo", "value": "cross-reacted with both amidated and glycine-extended gastrin-17"}, {"measurement": "antigen binding capacity of serum antibody titers", "setting": "[2]; within 2 weeks of the initial immunization", "value": "> 10^−9 M"}]}
{"molecule": "Cc1c(OCC(F)(F)F)ccnc1C[S+]([O-])c1nc2ccccc2[nH]1", "note": "(stereo not drawn) [lansoprazole]", "values": [{"measurement": "effectiveness in alleviating the symptoms of GERD esophagitis compared with histamine H2 blockers", "setting": "[3]; human, in vivo", "value": "more effective than histamine H2 blockers"}]}
{"molecule": "CN/C(=N/CCSCc1nc[nH]c1C)NC#N", "note": "[cimetidine]", "values": [{"measurement": "patients with healing of esophagitis, endoscopically determined (mean)", "setting": "[3]; [5]", "value": 48, "unit": "%"}, {"measurement": "patients with symptomatic relief of GERD (mean)", "setting": "[3]; [5]", "value": 61, "unit": "%"}, {"measurement": "efficacy in GERD patients at doses and durations proven effective in healing peptic ulcers", "setting": "[3]; GERD patients, peptic ulcer doses and durations", "value": "not effective in GERD"}]}
{"molecule": "heptadecagastrin [Peptide G17]", "values": [{"measurement": "potency as stimulator of gastric acid secretion relative to histamine", "setting": "[4]", "value": 1500, "unit": "times"}]}
